The substances below were run on lymphocytes separated from spleen and thymus (assay: Lymphocyte proliferation assay (alamar blue)). Settings: 72 hours after addition of stimulant, FIG. 2.
Format: cell-based, BALB/c mice
Method: Lymphocytes were prepared from the spleen and thymus of BALB/c mice and were incubated with supernatants derived from growing L. reuteri ATCC 55730 in the presence and absence of glycerol (50 mM). L. reuteri ATCC 55730 was selected as it is a known good producer of 3-HPA and thus follows the selection criteria of the invention. Control incubations were performed with glycerol alone, media alone and known lymphocyte proliferation stimulants.
Separation of spleen and thymus lymphocytes. BALB/c mice were sacrificed by cervical dislocation, and their thymus was separated, immersed in Hanks' balanced salt solution (HBSS) and torn piecemeal to obtain a single cell. The single cell was centrifuged through double layers in Histopaque-1083 (Sigma) to obtain lymphocytes. These cells were washed two times with IMDM, and living cells were counted according to tryphan blue exclusion technique and used in the experiment at an adjusted final concentration of 1×10^7/mL.
Preparation of bacterial lysates. L. reuteri and Listeria monocytogenes lysates were prepared as mentioned in the phagocytic assay.
Preparation of L. reuteri supernatants. L. reuteri supernatant was also prepared as mentioned in the phagocytic assay.
Lymphocyte proliferation assay. Lymphocyte proliferation assay was carried out using lymphocytes suspended in IMDM+10% horse serum at 4×10^6 per well. The lymphocytes were treated with varying concentrations of L. reuteri, L. monocytogenes cell lysate and L. reuteri supernatant along with a reference stimulant, of which concentrations and conditions were as follows:
In the results reported in Table 2, MRS and glycerol sol. controls were used by adjusting pH in broths which were not incubated with L. reuteri, and the following symbols used: ConA: concanavalin A, PWM: pokeweed mitogen, PHA: phytohemaaglutinin, LPS: liphopholysaccharide from Salmonella enterica serovar Typhimurium.
Stimulants including ConA were added into a well containing lymphocytes in accordance with each condition, 3 hours before alamar blue was added at 10% concentration. 72 hours after the addition of each stimulant, the level of lymphocyte proliferation was determined by the value of OD570 nm-OD600 nm.
The result of lymphocyte proliferation was represented as Stimulation Index (SI), which is (ODtreatment-ODmedia control)/ODcell control value. In the case of L. reuteri supernatant treatment group, however, values of J and K treatment groups, but not IMDM+10% horse serum, were used as OD media control value.

| Substance | lymphocyte proliferation (Stimulation Index) |
| --- | --- |
| concanavalin A [ConA] | marked stimulation of lymphocyte proliferation |
| liphopholysaccharide from Salmonella enterica serovar Typhimurium [LPS] | marked stimulation of lymphocyte proliferation |
| phytohemaaglutinin [PHA] | marked stimulation of lymphocyte proliferation |
| pokeweed mitogen [PWM] | marked stimulation of lymphocyte proliferation |

Reference: patent publication US20100330128A1, “Method of improving immune function in mammals using lactobacillus strains with certain lipids” (priority 2005, published 2010)
